Measured values published in ChEMBL document CHEMBL3872283, “Design, Synthesis, and Evaluation of Novel and Selective G-protein Coupled Receptor 120 (GPR120) Spirocyclic Agonists” (ACS Med Chem Lett, 2017).
Active and inactive are the calls of the source. No cut-off for these calls is given here.

Tests used:
[1] = target: T1, Free fatty acid receptor 4 (Mus musculus, UniProt Q7TMA4); assay: Agonist activity at mouse GPR120 expressed in U2OS cells assessed as induction of beta-arrestin2 recruitment after 90 mins by luminescence assay; assay type: cell-based
T1 sequence (Q7TMA4 whole entry): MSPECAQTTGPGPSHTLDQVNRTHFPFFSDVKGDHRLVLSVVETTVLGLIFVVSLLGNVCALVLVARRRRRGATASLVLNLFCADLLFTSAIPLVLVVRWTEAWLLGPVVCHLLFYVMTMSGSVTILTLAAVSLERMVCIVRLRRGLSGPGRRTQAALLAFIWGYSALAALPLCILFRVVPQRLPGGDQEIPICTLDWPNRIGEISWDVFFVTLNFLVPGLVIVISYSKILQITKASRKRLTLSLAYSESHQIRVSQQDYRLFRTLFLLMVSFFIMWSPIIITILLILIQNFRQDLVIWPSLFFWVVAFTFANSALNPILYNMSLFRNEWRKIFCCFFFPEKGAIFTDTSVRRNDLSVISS

[2] = target: T1, Free fatty acid receptor 4; assay: Agonist activity at mouse GPR120 expressed in CHOK1 cells assessed as induction of IP1 accumulation after 60 mins by HTRF assay; assay type: functional, cell-based, CHO-K1
[3] = target: Voltage-dependent L-type calcium channel subunit alpha-1C (Homo sapiens, UniProt Q13936); assay: Inhibition of Cav1.2 (unknown origin)
Voltage-dependent L-type calcium channel subunit alpha-1C, sequence (Q13936 whole entry): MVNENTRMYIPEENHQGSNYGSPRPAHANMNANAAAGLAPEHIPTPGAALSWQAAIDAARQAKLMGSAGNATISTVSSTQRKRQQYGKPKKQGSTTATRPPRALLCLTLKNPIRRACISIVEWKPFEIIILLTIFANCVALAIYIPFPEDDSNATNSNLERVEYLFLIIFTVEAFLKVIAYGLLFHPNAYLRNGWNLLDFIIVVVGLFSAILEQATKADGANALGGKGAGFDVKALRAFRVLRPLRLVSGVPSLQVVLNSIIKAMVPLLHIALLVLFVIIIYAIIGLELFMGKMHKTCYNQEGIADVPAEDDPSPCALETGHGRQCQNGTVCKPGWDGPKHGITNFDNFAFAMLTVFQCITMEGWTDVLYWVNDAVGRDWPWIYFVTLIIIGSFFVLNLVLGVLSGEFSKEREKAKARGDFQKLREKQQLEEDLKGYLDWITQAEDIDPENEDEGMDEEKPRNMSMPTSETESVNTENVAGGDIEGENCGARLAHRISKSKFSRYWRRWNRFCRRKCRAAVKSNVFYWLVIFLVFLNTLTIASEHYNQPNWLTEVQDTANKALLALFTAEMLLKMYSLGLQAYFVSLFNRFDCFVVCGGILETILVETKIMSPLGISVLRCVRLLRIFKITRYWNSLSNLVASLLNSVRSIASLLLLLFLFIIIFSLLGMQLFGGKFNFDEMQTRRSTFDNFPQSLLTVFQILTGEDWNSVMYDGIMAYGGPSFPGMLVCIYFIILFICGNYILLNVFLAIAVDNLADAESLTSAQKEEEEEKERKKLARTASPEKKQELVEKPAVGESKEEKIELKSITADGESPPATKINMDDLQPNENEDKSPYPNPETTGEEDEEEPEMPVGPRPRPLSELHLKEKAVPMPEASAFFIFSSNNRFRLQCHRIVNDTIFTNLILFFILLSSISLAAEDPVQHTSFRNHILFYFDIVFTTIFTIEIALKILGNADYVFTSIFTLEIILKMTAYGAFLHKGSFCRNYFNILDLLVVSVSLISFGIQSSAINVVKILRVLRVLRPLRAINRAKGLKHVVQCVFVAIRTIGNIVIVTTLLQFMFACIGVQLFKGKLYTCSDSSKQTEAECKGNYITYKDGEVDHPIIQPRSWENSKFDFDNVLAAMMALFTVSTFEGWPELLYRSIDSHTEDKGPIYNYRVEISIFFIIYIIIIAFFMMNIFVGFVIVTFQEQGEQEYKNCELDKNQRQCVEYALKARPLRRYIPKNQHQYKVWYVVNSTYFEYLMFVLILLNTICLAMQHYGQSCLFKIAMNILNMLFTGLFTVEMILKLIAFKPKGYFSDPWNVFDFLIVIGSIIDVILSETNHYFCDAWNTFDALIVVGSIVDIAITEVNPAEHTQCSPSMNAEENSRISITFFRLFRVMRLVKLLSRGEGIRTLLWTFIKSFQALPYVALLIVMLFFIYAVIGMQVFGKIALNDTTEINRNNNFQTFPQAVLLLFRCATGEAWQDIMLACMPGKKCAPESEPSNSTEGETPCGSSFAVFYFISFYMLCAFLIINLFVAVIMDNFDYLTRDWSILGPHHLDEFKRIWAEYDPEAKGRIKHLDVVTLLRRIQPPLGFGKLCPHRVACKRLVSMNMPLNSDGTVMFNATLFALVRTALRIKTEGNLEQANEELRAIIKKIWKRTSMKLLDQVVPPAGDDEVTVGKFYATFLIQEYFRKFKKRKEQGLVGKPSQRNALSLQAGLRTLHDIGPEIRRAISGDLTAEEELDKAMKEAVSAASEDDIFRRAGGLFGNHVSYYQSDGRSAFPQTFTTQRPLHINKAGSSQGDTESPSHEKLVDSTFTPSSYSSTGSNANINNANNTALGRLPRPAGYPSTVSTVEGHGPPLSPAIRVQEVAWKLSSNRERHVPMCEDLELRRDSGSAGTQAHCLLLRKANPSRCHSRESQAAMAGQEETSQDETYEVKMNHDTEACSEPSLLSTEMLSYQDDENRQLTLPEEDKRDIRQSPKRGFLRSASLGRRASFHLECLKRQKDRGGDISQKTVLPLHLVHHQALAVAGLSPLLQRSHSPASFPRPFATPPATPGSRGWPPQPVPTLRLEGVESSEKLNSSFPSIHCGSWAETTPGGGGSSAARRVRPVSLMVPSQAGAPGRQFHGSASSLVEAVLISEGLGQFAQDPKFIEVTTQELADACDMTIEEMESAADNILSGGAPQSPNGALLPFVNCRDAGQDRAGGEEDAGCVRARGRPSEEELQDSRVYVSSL

[4] = target: T2, Peroxisome proliferator-activated receptor alpha (Homo sapiens) (UniProt Q07869); assay: Binding affinity to human PPARalpha
T2 sequence (whole entry): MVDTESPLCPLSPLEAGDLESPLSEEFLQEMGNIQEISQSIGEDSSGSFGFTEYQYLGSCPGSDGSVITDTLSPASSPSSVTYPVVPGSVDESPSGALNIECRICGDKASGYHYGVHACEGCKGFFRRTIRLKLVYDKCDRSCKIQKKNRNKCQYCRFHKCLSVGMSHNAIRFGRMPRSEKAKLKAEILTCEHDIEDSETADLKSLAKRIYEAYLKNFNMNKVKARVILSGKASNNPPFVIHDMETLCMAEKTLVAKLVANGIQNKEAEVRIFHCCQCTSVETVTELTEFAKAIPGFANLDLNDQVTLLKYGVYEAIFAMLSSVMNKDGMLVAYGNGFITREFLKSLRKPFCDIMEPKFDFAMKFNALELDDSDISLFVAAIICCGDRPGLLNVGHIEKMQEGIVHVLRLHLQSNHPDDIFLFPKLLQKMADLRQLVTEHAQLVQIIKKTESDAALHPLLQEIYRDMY

Cytochrome P450 2D6 = Cytochrome P450 2D6 (Homo sapiens, UniProt P10635); assay: Inhibition of human CYP2D6; assay type: ADME
Cytochrome P450 2D6, sequence (P10635 whole entry): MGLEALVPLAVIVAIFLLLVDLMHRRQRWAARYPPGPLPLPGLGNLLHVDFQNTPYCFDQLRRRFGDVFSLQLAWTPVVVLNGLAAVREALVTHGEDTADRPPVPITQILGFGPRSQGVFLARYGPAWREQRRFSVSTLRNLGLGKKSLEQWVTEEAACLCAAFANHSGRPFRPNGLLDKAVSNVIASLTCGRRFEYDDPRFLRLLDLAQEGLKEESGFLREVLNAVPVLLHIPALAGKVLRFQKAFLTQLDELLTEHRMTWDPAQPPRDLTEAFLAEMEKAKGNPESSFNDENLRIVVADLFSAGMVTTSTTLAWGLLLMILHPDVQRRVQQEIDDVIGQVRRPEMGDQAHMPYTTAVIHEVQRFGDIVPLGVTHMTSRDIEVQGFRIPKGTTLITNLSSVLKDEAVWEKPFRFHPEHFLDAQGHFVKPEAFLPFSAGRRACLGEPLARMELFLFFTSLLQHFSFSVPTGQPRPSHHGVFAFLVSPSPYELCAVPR

Cytochrome P450 2C9 = Cytochrome P450 2C9 (Homo sapiens, UniProt P11712); assay: Inhibition of human CYP2C9; assay type: ADME
Cytochrome P450 2C9, sequence (P11712 whole entry): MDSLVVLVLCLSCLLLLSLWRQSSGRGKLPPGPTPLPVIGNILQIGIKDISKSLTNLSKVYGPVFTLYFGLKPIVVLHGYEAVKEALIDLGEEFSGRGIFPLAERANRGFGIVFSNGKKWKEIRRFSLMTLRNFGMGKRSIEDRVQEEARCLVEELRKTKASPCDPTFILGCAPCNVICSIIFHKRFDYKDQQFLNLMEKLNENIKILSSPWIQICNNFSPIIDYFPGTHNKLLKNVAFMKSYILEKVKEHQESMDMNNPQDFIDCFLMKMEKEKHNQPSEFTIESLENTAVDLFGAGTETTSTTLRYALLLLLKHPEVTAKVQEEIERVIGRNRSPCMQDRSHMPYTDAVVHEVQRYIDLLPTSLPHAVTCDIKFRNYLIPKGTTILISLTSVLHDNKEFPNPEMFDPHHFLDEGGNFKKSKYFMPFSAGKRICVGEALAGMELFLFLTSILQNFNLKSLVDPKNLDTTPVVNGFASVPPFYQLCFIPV

[5] = Plasma clearance in rat at 1 mg/kg, iv or 2 mg/kg, po by LC/MS/MS analysis; assay type: ADME, organism-based
[6] = Half life in rat at 1 mg/kg, iv or 2 mg/kg, po by LC/MS/MS analysis; assay type: ADME, organism-based; conditions: in vivo
[7] = AUC in mouse at 2 mg/kg, iv by LC/MS/MS analysis; assay type: ADME, organism-based; conditions: in vivo
[8] = MRT in mouse at 2 mg/kg, iv or 10 mg/kg, po by LC/MS/MS analysis; assay type: ADME, organism-based; conditions: in vivo
[9] = AUC in dog at 1 mg/kg, iv by LC/MS/MS analysis; assay type: ADME, organism-based, Canis lupus familiaris; conditions: in vivo
[10] = Plasma clearance in dog at 1 mg/kg, iv or 2 mg/kg, po by LC/MS/MS analysis; assay type: ADME, organism-based, Canis lupus familiaris
[11] = Half life in dog at 1 mg/kg, iv or 2 mg/kg, po by LC/MS/MS analysis; assay type: ADME, organism-based, Canis lupus familiaris; conditions: in vivo
[12] = Oral bioavailability in dog at 2 mg/kg by LC/MS/MS analysis; assay type: ADME, organism-based, Canis lupus familiaris; conditions: in vivo
[13] = Protein binding in dog plasma at 1 mg/kg, iv or 2 mg/kg, po by LC/MS/MS analysis; assay type: ADME, organism-based, Canis lupus familiaris; conditions: read-out: PPB (converted)
[14] = Oral bioavailability in rhesus monkey at 1 mg/kg by LC/MS/MS analysis; assay type: ADME, organism-based, Macaca mulatta; conditions: in vivo
Mus musculus [15] = assay: Antidiabetic activity in diet-induced obese mouse assessed as reduction in homeostatic model assessment of insulin resistance at 30 mg/kg, po qd administered daily via gavage for 14 days measured on day 14 post dose; assay type: functional, organism-based
Mus musculus [16] = assay: Antidiabetic activity in diet-induced obese mouse assessed as reduction in homeostatic model assessment of insulin resistance at 30 mg/kg, po qd administered daily via gavage for 28 days measured on day 28 post dose; assay type: functional, organism-based
Mus musculus [17] = assay: Toxicity in diet-induced obese mouse assessed as change in body weight at 30 mg/kg, po qd administered daily via gavage for 28 days; assay type: organism-based; conditions: in vivo, 672 h

EC50 [1]: 54 nM | EC50 [2]: 33 nM | Activity [4]: > 10 µM | INH (Cytochrome P450 2D6): > 48 µM | INH (Cytochrome P450 2C9): > 48 µM | clearance [5]: 2.3 mL/min/kg | half-life [6]: 1.4 h | AUC [7]: 14.6 µM·h | MRT [8]: 26.5 h | AUC [9]: 4.6 µM·h | clearance [10]: 9.8 mL/min/kg | half-life [11]: 11 h | bioavailability [12]: 100% | fraction unbound [13]: 0.0015 | bioavailability [14]: 77%
SMILES: O=C(O)CC1CCC2(CC1)CCN(c1cc(OC(F)(F)F)ccc1Cl)CC2
INH [3]: 21 µM | Activity (Mus musculus [15]): Active | Activity (Mus musculus [16]): Active | Activity (Mus musculus [17]): Non-Toxic
